Series [1] is described as follows: ABTS radical scavenging assay. The note with it: for IC50: 30 min incubation, EtOH, absorbance at 734 nm; for ABTS-TEAC100: Trolox Equivalent Antioxidant Capacity vs 100 µM solution of the substance, from ABTS assay. Type of series: biochemical. As for the experimental part: ABTS^+ radical was produced by reacting 2,2′-azino-bis-3-ethylbenzthiazoline-6-sulphonic acid (ABTS) 7 mM with K2S2O8 2.45 mM, both reactants dissolved in water, and at the volume ratio of 1:1. The mixture was stored in the dark at room temperature for 16 h. The ABTS^+ solution was diluted to give an absorbance of 0.750 ± 0.025 at 734 nm in EtOH. All the compounds tested were dissolved in EtOH. 150 µL of each compound solution was added to the wells of the 96-well plate, followed by the addition of 50 µL of the ABTS^+ radical solution. Final compound concentrations tested were 0, 5, 10, 20, 50, 100, 150, 200 µM. The absorbance change at 734 nm was recorded after 30 min incubation in the dark, and the percentage of radical scavenging was calculated for each concentration relative to a blank containing no scavenger. The degree of decolorization was calculated as the percentage reduction of absorbance. The ABTS^+ radical scavenging activity was calculated as follows: Percentage ABTS^+ radical scavenging activity = {1 − [As/Ac]} × 100(1) where As is the absorbance of the ABTS^+ radical solution containing samples and Ac the absorbance of the control solution without antioxidant. The percentages of ABTS^+ radical reduced were plotted against compound concentration. Trolox was used as a reference antioxidant. All the assays were carried out three times by quadruplicate for each compound.

Series [2] is described as follows: FRAP (Ferric Reducing Antioxidant Power) assay. Type of series: biochemical. The following applies: for FRAP-TEAC100: Trolox Equivalent Antioxidant Capacity vs 100 µM solution of the substance, from FRAP assay; for FRAP Assay (%) at 100 µM / FRAP Assay (%) at 200 µM: 30 min, 593 nm. As for the experimental part: The assay was carried out according to the method of Benzie et al. with slight modifications, in a 96-well microplate. FRAP reagent was prepared by mixing 10 mL of 300 mM acetate buffer with 1 mL of 10 mM 2,4,6-tripyridyl-S-triazine (TPTZ) in HCl 40 mM and 1mL of FeCl3·6H2O 20 mM. Firstly, 190 µL of the FRAP reagent were added to all wells of the 96-well plate, followed by the addition to the well of 10 µL of the test compounds dissolved in Ethanol to reach the final concentrations assayed (0, 5, 10, 20, 50, 100, 150, 200 µM). After 30 min incubation in the dark, the absorbance was read at 593 nm. Trolox was used as assay control. Three different assays were carried out by quadruplicate for each compound.

Series [3] is described as follows: DPPH radical scavenging assay. The class given is biochemical. The note with it: antioxidant concentration that decreases initial DPPH^• concentration by 50%; 30 min, 517 nm. As for the experimental part: The assay was performed in a 96-well microplate. A 0.2 mM solution of 2,2-diphenyl-1-picryl-hydrazyl-hydrate (DPPH) in ethanol was prepared. All the compounds tested were dissolved in EtOH. Firstly, 150 µL of each compound solution was added to the wells of the 96-well plate, followed by the addition of 50 µL of the DPPH solution. Final compound concentrations tested were 0, 5, 10, 20, 50, 100, 150, 200 µM. The change in absorbance at 517 nm was measured after 30 min incubation in the dark. The free radical scavenging activity was calculated as inhibition using the following Equation (2): Percentage DPPH radical scavenging activity = {1 − [As/Ac]} × 100(2) where As is the absorbance of the DPPH solution containing samples and Ac the absorbance of the control solution without antioxidant but with DPPH. The percentages of DPPH reduced were plotted against compound concentration. The experiment was also conducted using Trolox as reference antioxidant. Assays were performed three times by quadruplicate for each compound.
A general note: Loss of DPPH colour is used to gauge radical scavenging.

Series [4] in a line: Cytotoxicity in SH-SY5Y cells (MTT). The following applies: human, SH-SY5Y neuronal cells, concentration reducing cell viability to 50% of control. Type of series: cell-based. As for the experimental part:
So, to study the neuroprotectant potential of β-diketones in the SH-SY5Y cell line, we firstly need to determine their cytotoxicity in the same cellular model. […] In addition to that, within each series, the introduction of a second fluorine atom in the left-hand side phenyl ring decreases also the cytotoxicity.
SH-SY5Y cells were seeded into 96-well plates at a density of 5 × 10^3 cells/well and grown in the incubator for 24 h. All compounds tested were dissolved and eventually further diluted in dimethylsulfoxide (DMSO). After overnight incubation, the cells were treated with different test concentrations (5, 10, 20, 50, 100, 150, 200 µM) in a final volume of 200 µL with four replicates each. […] Cell proliferation or viability was measured using the 3-(4,5-dimethylthiazol-2-yl)-2,5-diphenyl tetrazolium bromide (MTT) assay. After 24 h, 20 µL of MTT (5 mg/mL) was added to each well and the plate was incubated at 37 °C in the dark for 2 h. Supernatants were removed and the formazan crystals were solubilized in DMSO (200 µL/well), under 10 min shaking at room temperature. The reduction of MTT was quantified by absorbance at 570 nm Varioskan microplate reader (Thermo Fisher Scientific, Vantaa, Finland). Effects of the test compounds on cell viability were calculated using cells treated with vehicle as control. The data were subjected to linear regression analysis and the regression lines were plotted for the best fit. The IC50 (inhibition of cell viability) concentrations were calculated using the respective dose-response curves.

A short description of series [5]: Iron chelation capacity (Fe^+2-ferrozine complex). The class given is biochemical. The following applies: all experiments, both 50 and 200 µM. As for the experimental part:
To decrease the level of free Fe^2+ that can reduce H2O2 to the ^•OH radical and produce other ROS, it is worth to evaluate the iron chelation capacity of new potential AOX compounds as potential new therapeutic agents against neurodegenerative diseases. […] In this assay ferrozine form complexes with Fe^+2 in a quantitative manner, and in the presence of chelating compounds this complex is disrupted.
The iron chelation capacity was determined according to the method of Dinis et al., using ferrous chloride instead of ferrous sulfate. In this method, ferrozine can form complexes with a ferrous ion in a quantitative way yielding a red color with maximum absorbance at 562 nm. In the presence of other iron chelators, a decoloration is observed due to the competition with ferrozine for the metal. The assay was carried out in a 96 well plate. Serial dilutions of test compound (0, 5, 10, 25, 50, 100, 150, 200 µM) were dispensed (180 µL) into each well and then 10 µL of FeCl2 1 mM were added (final FeCl2 concentration, […]). After shaking the plate for 1 min, 10 µL of Ferrozine 2 mM were added. The mixture was shaken thoroughly and left to stand for 20 min at room temperature. The absorbance was measured at 562 nm with a Varioskan microplate reader. […] The compound iron chelation activity was calculated as the percentage of inhibition of the Fe^+2-Ferrozine complex by the formula in Equation (3):%Inhibition = {(Ao − As)/Ao} × 100(3) where Ao is the absorbance of the control, and As is the absorbance in the presence of the test compound. EDTA was used as a positive control. All the experiments were performed three times by quadruplicate for each compound concentration.

Experimental findings from paper PMC6222706, “Evaluation of the Antioxidant and Neuroprotectant Activities of New Asymmetrical 1,3-Diketones” (Molecules : A Journal of Synthetic Chemistry and Natural …, 2018) are described below.

With `COc1cc(/C=C/C(O)=C/C(=O)C(F)(F)F)ccc1O` [Compound 1b, (3Z,5E)-1,1,1-trifluoro-4-hydroxy-6-(4-hydroxy-3-methoxyphenyl)hexa-3,5-dien-2-one], in series [1], inhibition was half-maximal at 34.6 ± 2.7 µM (IC50) and the ABTS-TEAC100 came out at 0.73. Further, in series [2], the FRAP-TEAC100 amounted to 0.64, the “FRAP Assay (%) at 100 µM” value turned out to be 36.6% and the “FRAP Assay (%) at 200 µM” value was found to be 61.4%. Moreover, in series [3], the IC50 is 53.8 ± 2.6 µM. In addition, the IC50 at 24 h in series [4] was 102 ± 5.6 µM.
With `COc1cc(/C=C/C(O)=C/C(=O)c2ccccc2)ccc1F` [Compound 2a, (2Z,4E)-5-(4-fluoro-3-methoxyphenyl)-3-hydroxy-1-phenylpenta-2,4-dien-1-one], in series [1], the IC50 was > 600 µM and the ABTS-TEAC100 was 0.21. In addition, in series [2], the FRAP-TEAC100 amounted to 0.00, the “FRAP Assay (%) at 100 µM” value amounted to 0.1% and the “FRAP Assay (%) at 200 µM” value amounted to 0.7%. In series [4], the IC50 at 24 h is 75.7 ± 5.4 µM.
`COc1cc(/C=C/C(O)=C/C(=O)C(F)(F)F)ccc1F` [Compound 2b, (3Z,5E)-1,1,1-trifluoro-6-(4-fluoro-3-methoxyphenyl)-4-hydroxyhexa-3,5-dien-2-one]: in series [1], the half-inhibitory concentration (IC50) is > 600 µM and the ABTS-TEAC100 is recorded as 0.23. In addition, in series [2], the FRAP-TEAC100 was found to be 0.03, the “FRAP Assay (%) at 100 µM” value turned out to be 1.9% and the “FRAP Assay (%) at 200 µM” value amounted to 3.1%. Moreover, the half-inhibitory concentration (IC50) at 24 h in series [4] came out at 88 ± 4.5 µM.
Regarding `O=C(/C=C(O)/C=C/c1ccc(O)c(F)c1)c1ccccc1` [Compound 3a, (2Z,4E)-5-(3-fluoro-4-hydroxyphenyl)-3-hydroxy-1-phenylpenta-2,4-dien-1-one], in series [1], the IC50 stood at 60.2 ± 2.2 µM and the ABTS-TEAC100 was 0.51. For the same compound, in series [2], the FRAP-TEAC100 is 0.33, the “FRAP Assay (%) at 100 µM” value worked out at 20.5% and the “FRAP Assay (%) at 200 µM” value is listed as 31.0%. Half-maximal inhibition in series [4] (IC50 at 24 h) was put at 98.1 ± 8.3 µM.
As to `O=C(/C=C(O)/C=C/c1ccc(O)c(F)c1)C(F)(F)F` [Compound 3b, (3Z,5E)-1,1,1-trifluoro-6-(3-fluoro-4-hydroxyphenyl)-4-hydroxyhexa-3,5-dien-2-one], in series [1], half-maximal inhibition (IC50) was put at 113 ± 12.4 µM and the ABTS-TEAC100 worked out at 0.67. In addition, in series [2], the FRAP-TEAC100 was found to be 0.34, the “FRAP Assay (%) at 100 µM” value turned out to be 19.7% and the “FRAP Assay (%) at 200 µM” value is 32.6%. The compound also had a half-maximal inhibitory concentration (IC50) at 24 h in series [4] of 109 ± 7.6 µM.
Consider `O=C(/C=C(O)/C=C/c1ccc(O)cc1F)c1ccccc1` [Compound 4a, (2Z,4E)-5-(2-fluoro-4-hydroxyphenyl)-3-hydroxy-1-phenylpenta-2,4-dien-1-one], for which, in series [1], the IC50 is 108 ± 7.6 µM and the ABTS-TEAC100 worked out at 0.40. Also, in series [2], the FRAP-TEAC100 is given as 0.15, the “FRAP Assay (%) at 100 µM” value is recorded as 9.8% and the “FRAP Assay (%) at 200 µM” value is reported as 14.3%. In addition, the IC50 at 24 h in series [4] stood at 104 ± 7.1 µM.
Turning to `O=C(/C=C(O)/C=C/c1ccc(O)cc1F)C(F)(F)F` [Compound 4b, (3Z,5E)-1,1,1-trifluoro-6-(2-fluoro-4-hydroxyphenyl)-4-hydroxy-hexa-3,5-dien-2-one], in series [1], the IC50 was 216 ± 39.5 µM and the ABTS-TEAC100 was found to be 0.52. Further, in series [2], the FRAP-TEAC100 is given as 0.09, the “FRAP Assay (%) at 100 µM” value was 4.8% and the “FRAP Assay (%) at 200 µM” value worked out at 8.5%. For the same compound, half-maximal inhibition in series [4] (IC50 at 24 h) was put at 138 ± 6.5 µM.
In the case of `O=C(/C=C(O)/C=C/c1ccc(F)c(O)c1F)c1ccccc1` [Compound 5a, (2Z,4E)-5-(2,4-difluoro-3-hydroxyphenyl)-3-hydroxy-1-phenylpenta-2,4-dien-1-one], in series [1], 275 ± 35.3 µM corresponded to half-maximal inhibition (IC50) and the ABTS-TEAC100 is listed as 0.23. For the same compound, in series [2], the FRAP-TEAC100 is reported as 0.05, the “FRAP Assay (%) at 100 µM” value is listed as 3.4% and the “FRAP Assay (%) at 200 µM” value worked out at 5.3%. In series [4], this compound registered an IC50 at 24 h of 119 ± 8.5 µM.
`O=C(/C=C(O)/C=C/c1ccc(F)c(O)c1F)C(F)(F)F` [Compound 5b, (3Z,5E)-6-(2,4-difluoro-3-hydroxyphenyl)-1,1,1-trifluoro-4-hydroxyhexa-3,5-dien-2-one]: in series [1], the IC50 is 518 ± 94.6 µM and the ABTS-TEAC100 came out at 0.32. In addition, in series [2], the FRAP-TEAC100 was 0.05, the “FRAP Assay (%) at 100 µM” value was 3.0% and the “FRAP Assay (%) at 200 µM” value stood at 4.7%. Also, the IC50 at 24 h in series [4] worked out at 153 ± 21 µM.
On to `O=C(/C=C(O)/C=C/c1cc(F)c(O)cc1F)c1ccccc1` [Compound 6a, (2Z,4E)-5-(2,5-difluoro-4-hydroxyphenyl)-3-hydroxy-1-phenylpenta-2,4-dien-1-one], for which, in series [1], the IC50 stood at 67.2 ± 2.7 µM and the ABTS-TEAC100 is recorded as 0.51. Moreover, in series [2], the FRAP-TEAC100 is on record as 0.25, the “FRAP Assay (%) at 100 µM” value turned out to be 15.5% and the “FRAP Assay (%) at 200 µM” value is 25.2%. For the same compound, the IC50 at 24 h in series [4] was 134 ± 6.6 µM.
For `O=C(O)CN(CCN(CC(=O)O)CC(=O)O)CC(=O)O` [EDTA, reference compound], the “Inhibition of the Fe^+2-Ferrozine complex” value in series [5] is “completely inhibits”.
For `Cc1c(C)c2c(c(C)c1O)CCC(C)(C(=O)O)O2` (centres unmarked) [Trolox, reference compound], in series [1], the IC50 worked out at 34 ± 2.3 µM and the ABTS-TEAC100 worked out at 1. Further, in series [2], the FRAP-TEAC100 worked out at 1, the “FRAP Assay (%) at 100 µM” value is given as 53.0% and the “FRAP Assay (%) at 200 µM” value is reported as 100.0%. For the same compound, in series [3], half-maximal inhibition (IC50) required 19 ± 1.8 µM.

Usually IC50 stands for the concentration at which inhibition is half-maximal. A lower IC50 goes with inhibition by little substance.
